“And” between values parts separate entries of the source, which are not always exact repeats. Equal entries are not always repeated.
Columns and labels:
[1] = system: L1210 leukemic cells; assay: Survival of CD2F1 mice bearing L1210 leukemia; assay type: in vivo; conditions: i.v. 10^4 L1210 cells; for Increase in life span (%): 0.5% genistein in diet and/or DAC 2 mg/kg 8 h i.v. infusion on day 1
Procedure: In vivo experiments. Male CD2F1 mice (24-28 g) were purchased from Taconic Biotechnology (Germantown, N.Y., USA). Mice were acclimatized to housing conditions at least 2 weeks before experiments. They received food and water ad libitum. […] Seven days later, the ascetic fluid was obtained from the mice and a cell count of the leukemic cells was performed with a haemocytometer prior to subsequent transplantation. Mice were injected intravenously (i.v.) with 0.1 ml of L1210 or L1210/ARAC (10^4) cells. […] Mice were acclimated to the genistein-enriched regimen over a 10-days period before injection of leukemic cells. A Harvard apparatus compact infusion pump was used at a flow rate of 0.22 ml/h via 25-gauge needle into the lateral tail vein. DAC was given at 2 mg/kg for 8 h. Decitabine was prepared fresh before each experiment, dissolved in ½ PBS and sterilized by 0.2 μm filtration. Mice were placed in a restrainer cage during treatment with access to food. Toxicity was evaluated by body weight loss. Mice fed with genistein-enriched diet kept the same regimen during all the experiment. The survival time of each group of mice was monitored and the increased in life span (ILS) calculated.
Statistical analyses. In order to evaluate whether the inter-group variations were random, one-way ANOVA testing was performed. […] A p value≦0.05 was taken for statistical significance.

[2] = system: L1210 murine lymphoid leukemic cells; assay: Inhibition/loss of clonogenicity in soft agar, L1210; assay type: cell-based
Procedure: (§1) Cell lines and drug exposure. Human myeloid (HL-60) and lymphoid (MOLT-3) leukemic cells were obtained from ATCC (ATCC #: CRL-1552; Manassas, Va. USA). MBA-MD-231 and Dld-1 cells were also used. Human cell lines were cultured in RPMI-1640 medium (Invitrogen, Burlington, Ontario) supplemented with 10% heat-inactivated fetal bovine serum (Wisent, St-Bruno, Quebec). The doubling times of HL-60 and MOLT-3 were 16-18 h and 23-24 h, respectively, whereas for both MBA-MD-231 and Dld-1 cells it was 24-27 h. The murine lymphoid leukemic cell line L1210 (ATCC #: CCL-219; Brandes et al., (1966). J Natl Cancer Inst. 37(4): 467-85) was cultured in RPMI-1640 with 5% heat-inactivated fetal calf serum and with 6 μM of 2-mercaptoethanol. The doubling time of the L1210 cells was about 10 h. From this cell line, a clone fully resistant to […], identified herein as L1210/ARAC, was generated after exposure of increasing doses of cytosine arabinoside for a period of 3 months (Schabel et al., (1984). Cancer Treat. Rep 67: 905-922). The doubling time of the L1210/ARAC cells was about 12 h. Human lung adenocarcinoma cells H2087, and Calu-6 non-small cell lung cancer cells, were obtained from ATCC (ATCC #: CRL-5922; Manassas, Va. USA) and cultured in DMEM and RPMI without HEPES, respectively. The cells were trypsinized with 0.25% Trypsin-EDTA (Invitrogen, Grand Island, N.Y.). The doubling time of the H2087 cells was about 35 h. Cell lines were incubated at 37° C. in 5% CO2 atmosphere.
(§2) Genistein (LC Laboratories, Woburn, Mass.) was dissolved in DMSO (Sigma, Oakville, Ontario) to prepare stock solutions of 2 and 20 mM and kept frozen at −20° C. until use. Decitabine (DAC, Dacogen™, 5-aza-2′-deoxycytidine) at 1000 μg/ml in PBS was kept at −80° C. Before each experiment, Decitabine was diluted at 1 μg/ml (for murine leukemic cell lines), 10 μg/ml (for human leukemic cells), or 100 μg/ml (for lung carcinoma cells) with sterile PBS and kept on ice until use.
Inhibition of clonogenicity. It is known that cancer cells form clones in soft agar (clonogenicity). Irreversible eradication of the clonogenicity of cancer stem cells is one of the objectives of chemotherapy since it is related to cell proliferation potential. Human and murine leukemic cell lines in log phase at 5×10^4 cells/ml were placed in tissue culture flasks and exposed to the drug combinations for 48 and 24 h respectively. […] After 7 d of incubation for murine cell lines or 15 d for human cell lines, the number of colonies (>50 cells) was counted. […] The experiments were repeated three times and expressed as mean±S.E.M.
(§3) Statistical analyses. […] The p value was evaluated accordingly to Tukey's method (Hastings, C et al. (1947). Ann. Math. Statist. 18,413-426). […]

[3] = system: L1210/ARAC leukemic cells; assay: Survival of CD2F1 mice bearing L1210/ARAC leukemia; assay type: in vivo; conditions: i.v. 10^4 L1210/ARAC cells, 0.5% genistein in diet and/or DAC 2 mg/kg 8 h i.v. infusion on day 1
Procedure: In vivo experiments. Male CD2F1 mice (24-28 g) were purchased from Taconic Biotechnology (Germantown, N.Y., USA). Mice were acclimatized to housing conditions at least 2 weeks before experiments. They received food and water ad libitum. For transplantation of leukemia cells in mice, intraperitonal (i.p.) injections of 10^4 L1210 or L1210/ARAC cells in RPMI-1640 medium were performed weekly into the CD2F1 mice. Seven days later, the ascetic fluid was obtained from the mice and a cell count of the leukemic cells was performed with a haemocytometer prior to subsequent transplantation. Mice were injected intravenously (i.v.) with 0.1 ml of L1210 or L1210/ARAC (10^4) cells. Control groups that received the control diet 2016 (Teklad Global 16% Protein Rodent Diet™; Harlan Teklad, Madison Wis.) were either treated or not with DAC. To test the effect of genistein in the diet, mice were fed with 2016 diet supplemented with 0.5% genistein (Harlan Teklad) and treated with either DAC or the vehicle alone. Mice were acclimated to the genistein-enriched regimen over a 10-days period before injection of leukemic cells. A Harvard apparatus compact infusion pump was used at a flow rate of 0.22 ml/h via 25-gauge needle into the lateral tail vein. DAC was given at 2 mg/kg for 8 h. Decitabine was prepared fresh before each experiment, dissolved in ½ PBS and sterilized by 0.2 μm filtration. Mice were placed in a restrainer cage during treatment with access to food. Toxicity was evaluated by body weight loss. Mice fed with genistein-enriched diet kept the same regimen during all the experiment. The survival time of each group of mice was monitored and the increased in life span (ILS) calculated.
Statistical analyses. In order to evaluate whether the inter-group variations were random, one-way ANOVA testing was performed. The p value was evaluated accordingly to Tukey's method (Hastings, C et al. (1947). Ann. Math. Statist. 18,413-426). A p value≦0.05 was taken for statistical significance. Valeriote and Lin's method (Valeriote, F and Lin, H. S. 1975. Cancer Chemother. Rep. 59(5): 895-900) was used to determine if the interaction observed between drugs in the clonogenic assays was additive, synergistic or antagonistic.

[4] = system: HL-60 myeloid human leukemic cells; assay: Inhibition/loss of clonogenicity in soft agar, HL-60; assay type: cell-based; conditions: 48 h
Procedure: as §1
(§4) Genistein (LC Laboratories, Woburn, Mass.) was dissolved in DMSO (Sigma, Oakville, Ontario) to prepare stock solutions of 2 and 20 mM and kept frozen at −20° C. until use. Decitabine (DAC, Dacogen™, 5-aza-2′-deoxycytidine) at 1000 μg/ml in PBS was kept at −80° C. […]
(§5) Inhibition of clonogenicity. […] After 7 d of incubation for murine cell lines or 15 d for human cell lines, the number of colonies (>50 cells) was counted. […] The experiments were repeated three times and expressed as mean±S.E.M.
as §3

[5] = system: H2087 lung carcinoma cells; assay: Colony formation assay, H2087; assay type: cell-based, human; conditions: decitabine 220 nM and/or genistein 5 μM, 24 h, mean ± S.D., relative to untreated cells
Procedure: as §1, §2
For human lung carcinoma H2087 cells, 100 cells were placed in wells of a 6-well dish (day 0); for Calu-6, MBA-MD-231 and Dld-1, 200 cells were seeded. On day 1, Decitabine (50 ng/ml) and genistein (5 μM) were added concomitantly to the cells for 24 h. Drugs were then removed and wells were rinsed with 1 ml of medium. Fresh medium (2 ml) was added and after 16-19 d colonies were stained with 0.5% methylene blue in 50% methanol and counted. The inhibition/loss of clonogenicity (%) was expressed relative to control (untreated) cells. The experiments were repeated three times and expressed as mean±S.D or mean±SEM for Calu-6, MBA-MD-231 and Dld-1 cells.
as §3

[6] = system: MOLT-3 lymphoid human leukemic cells; assay: Inhibition/loss of clonogenicity in soft agar, MOLT-3; assay type: cell-based; conditions: 48 h
Procedure: as §1, §4, §5, §3

[7] = system: L1210/ARAC cells (DAC-resistant clone of L1210); assay: Inhibition/loss of clonogenicity in soft agar, L1210/ARAC; assay type: cell-based, murine; conditions: alone or with DAC 4.4 nM
Procedure: as §1, with “The doubling time of the L1210/ARAC cells was about 12 h. Human lung adenocarcinoma cells H2087, and Calu-6 non-small cell lung cancer cells, were obtained from ATCC (ATCC #: CRL-5922; Manassas, Va. USA) and cultured in DMEM and RPMI without HEPES, respectively. The cells were trypsinized with 0.25% Trypsin-EDTA (Invitrogen, Grand Island, N.Y.). The doubling time of the H2087 cells was about 35 h. Cell lines were incubated at 37° C. in 5% CO2 atmosphere.” left out
as §5, §3

[8] = system: human lung carcinoma cell line (CALU-6); assay: Colony formation assay, CALU-6; assay type: cell-based
Procedure: as §1, with “atmosphere. […]” for “atmosphere.”
For human lung carcinoma H2087 cells, 100 cells were placed in wells of a 6-well dish (day 0); for Calu-6, MBA-MD-231 and Dld-1, 200 cells were seeded. […] Fresh medium (2 ml) was added and after 16-19 d colonies were stained with 0.5% methylene blue in 50% methanol and counted. […] The experiments were repeated three times and expressed as mean±S.D or mean±SEM for Calu-6, MBA-MD-231 and Dld-1 cells.
as §3

[9] = genistein 0.1 μM, alone or with DAC 44 nM
[10] = genistein 1 μM, alone or with DAC 44 nM
[11] = DAC 44 nM alone, relative to control cells

O=c1c(-c2ccc(O)cc2)coc2cc(O)cc(O)c12 [genistein]
Increase in life span (%) [1]: 7.0. (p < 0.001) %
survival time after injection of leukemia ([1]; 0.5% genistein-enriched diet): 7.85 ± 0.10 days
loss of clonogenicity ([2]; genistein 0.1 μM, alone or with DAC 4.4 nM): 2%
loss of clonogenicity ([2]; genistein 1 μM, alone or with DAC 4.4 nM): 13%
Increase in life span (%) [3]: 7.88%
Survival time [3]: 10.39 ± 1.01 days
loss of clonogenicity [4, 9]: 1%
loss of clonogenicity [4, 10]: 15%
Loss of clonogenicity (%) [5]: 3.8%
Loss of clonogenicity (%) ([5]; listed as Genistein): 3.8 ± 9.4%
loss of clonogenicity [6, 9]: 1%
loss of clonogenicity [6, 10]: 12%
loss of clonogenicity ([7]; genistein 0.1 μM): 2%
loss of clonogenicity ([7]; genistein 1 μM): 11%
Loss of clonogenicity (%) ([8]; genistein 0.1 μM, alone or with decitabine 10 ng/ml): 4.9%
Loss of clonogenicity (%) ([8]; genistein 10 μM, alone or with decitabine 10 ng/ml): 31.7%

Nc1ncn([C@H]2C[C@H](O)[C@@H](CO)O2)c(=O)n1 [DAC, 4-Amino-1-(2-deoxy-β-D-ribofuranosyl)-1,3,5-triazin-2(1H)-one, reference compound]
Increase in life span (%) [1]: 66.8%
loss of clonogenicity ([2]; DAC 4.4 nM alone, relative to control cells): 28%
loss of clonogenicity ([2]; DAC 4.4 nM alone, relative to control cells, listed as Decitabine): about 30%
Increase in life span (%) [3]: −2.3%
Survival time [3]: 9.42 ± 0.50 days
loss of clonogenicity [4, 11]: 20% and 17%
Loss of clonogenicity (%) [5]: 60%
Loss of clonogenicity (%) ([5]; listed as Decitabine): 60 ± 4.1%
loss of clonogenicity [6, 11]: 40% and 37%
Loss of clonogenicity (%) ([8]; decitabine 10 ng/ml alone): 36.6%

— patent publication US7985738B2, “Cytosine nucleoside analogs and isoflavones and uses thereof” (Institut National de la Recherche Scientifique, priority 2007, dated 2011)
